Literature values, collected in US20030143648A1, “Enzyme activity profiles” (priority 2001, published 2003).

Test system: FAAH
Settings: pH 8.0

CCCCCCCC/C=C\CCCCCCCC(N)=O [oleamide]
kcat of FAAH for oleamide: approximately 2 s −^1
